Measured values reported in patent US4895835A, “Muramyl peptide derivatives and use thereof” (priority 1987, dated 1990).

Columns and labels:
[1] = system: Psud. aeruginosa (NCTC 10490); assay: Phylactic effect, Psud. aeruginosa infection; format: in vivo; conditions: ICR mouse; compound 500 μg/ml, 0.2 ml i.p. one day before infection i.p. 1×10^7 /mouse; after 7 days of infection
Procedure: (§1) A solution of a compound of the invention in physiological saline (500 μg/ml), 0.2 ml was intraperitoneally injected into ICR mouse (20 mice per group). After a day, E. coli (JC-2) and Psud. aeruginosa (NCTC 10490) were incubated through intraperitoneal route so as to be at concentration of 1×10^7 /mouse. Survival rate after 7 days of infection was measured.

[2] = system: Meth A fibrosarcomas; assay: Antitumour effect, Meth A fibrosarcoma; format: in vivo; conditions: BALB/C mouse; s.c. 0.2 ml mixture of Meth A cells (1×10^6 cells/ml) and compound (1,000 μg/ml); after 35 days
Procedure: Meth A fibrosarcomas were suspended in phosphate buffered physiological saline (1×10^6 cells/ml). Separately, a solution of a compound of the invention in physiological saline was prepared (1,000 μg/ml). An equivalent weight mixture of these two solution (0.2 ml) was subcutaneously injected into BALB/C mouse (20 mice per group). Survival rate after 35 days was measured.

[3] = Stimulation effect on antibody producing cells (plaque numbers, Cunningham technique); format: in vivo, ICR mouse; conditions: for Plaque No.: ICR mouse, SRBC i.v. and compound 500 μg/ml, 0.2 ml i.v., splenic cells after 4 days; for Stimulation index: plaque number relative to control (saline) = 1
Procedure: (5) Stimulation effect on anti-body precluding cells
A solution of sheep […] (SRBC) in phosphate buffered physiological saline (5×10^7 cells/ml), 0.2 ml was injected into tail intravenous vein of ICR mouse (7 mice per group). At the same time, a solution of a compound of the invention in physiological saline (500 μg/ml), 0.2 ml was similarly injected. After 4 days, lien was picked up from the treated mouse to obtain splenic cells. Plaque numbers were measured by Cunningham technique.

[4] = system: influenza HA vaccine (A/Bangkok/10/83 strain, H1N1); assay: Enhancing effect on influenza HA vaccine (adjuvant activity), ELISA; format: in vivo; conditions: CDF1 mouse, compound (100 μg/ml) mixed with influenza HA vaccine (100 CCA/ml)
Procedure: (3) Enhancing effect on influenza HA vaccine (adjuvant activity)
A compound of the invention was dissolved or suspended in physiological saline (100 μg/ml). Separately, influenza HA vaccine (A/Bangkok/10/83 strain, H1N1) was dissolved in physiological saline (100 CCA/ml). These two solutions were mixed in an equivalent weight to make the test solution. Control is a solution excluded the compound of the invention from the test solution.
The test solution was administered into CDF1 mouse in a similar way to that of the test of enhancing action for hepatitis vaccine as mentioned above, to obtain primary and secondary response sera.

[5] = system: E. coli (JC-2); assay: Phylactic effect, E. coli infection; format: in vivo; conditions: ICR mouse; compound 500 μg/ml, 0.2 ml i.p. one day before infection i.p. 1×10^7 /mouse; after 7 days of infection
Procedure: as §1

[6] = system: BCG killed vaccine; assay: Enhancing action on BCG vaccine (adjuvant activity), 24 hours foot-pad test; format: in vivo; conditions: ICR mouse; s.c. 0.2 ml mixture of BCG killed vaccine (100 μg/ml) and compound in Freund's incomplete adjuvant (1000 μg/ml); tuberculin 10 μg after 14 days; measured after 24 hours
Procedure: (1) Enhancing action on BCG vaccine (adjuvant activity)
0.2 ml of an equivalent weight mixture of a solution of BCG killed vaccine in physiological saline (100 μg/ml) and a solution of a compound of the invention in Freund's incomplete adjuvant (1000 μg/ml) was subcutaneously injected to the back of ICR mouse (one group consisting of 7 mice). After 14 days, 10 μg of tuberculin was intradermally injected into the hind foot-pad. Swelling of the foot-pad was measured after 24 hours (24 hours foot-pad test).
The control is the above mentioned mixture excluded a compound of the invention.

[7] = system: leukemia cells of L-1210 mouse; assay: Activation for macrophages: cytostatic rate of intraperitoneal macrophages on leukemia cells; format: in vivo; conditions: CDF1 mouse i.p. 500 μg/ml, 0.2 ml; macrophages collected after 4 days; macrophages:L-1210 cells 20:1; 72 hours
Procedure: (4) Activation for macrophages
A test solution of a compound of the invention in physicological saline (500 μg/ml, 0.2 ml) was intraperioneally injected into CDF1 mouse (one group consisting of mice). Intraperioneal macrophages which were collected after 4 days and leukemia cells of L-1210 mouse were mixed at the cell ratio of 20 and 1. Each 200 μl of the mixture was put on a microplate having 96 holes. After 72 hours, numbers of cells in each holes were counted, and cytostatic rate of the mixture was measured.

[8] = system: B type hepatitis vaccine (HBs); assay: Enhancing effect on hepatitis vaccine (adjuvant activity), IgG antibody by ELISA; format: in vivo; conditions: CDF1 mouse; for Anti HBs-ELISA unit, Primary response serum: i.p. 0.2 ml compound (100 μg/ml) mixed with HBs vaccine, serum at 3 weeks; for Anti HBs-ELISA unit, Secondary response serum: second i.p. injection of 0.2 ml test solution, serum at 2 weeks
Procedure: (2) Enhancing effect on hepatitis vaccine (adjuvant activity)
A compound of the invention was dissolved or suspended in physiological saline (100 μg/ml), and mixed with a solution of B type hepatitis vaccine (HBs) in physiological saline (100 μg/m) at an equivalent weight ratio to obtain the test solution. A solution excluded the compound of the invention from the test solution was used as control.
The test solution (0.2 ml) was intraperitoneally injected into CDF1 mouse (one group consisting of 10 mice). At 3 weeks after the administration, a blood was taken from the intravenous vein in eyeground of each the mice and centrifuged to obtain serum (primary response serum). Further, 0.2 ml of the test solution was again intraperitoneally injected into each mice, and at 2 weeks stage, serum was separated in the similar way (secondary response serum).
Value for IgG antibody against B type hepatitis virus of the resulting serum was measured by ELISA method.

Row | SMILES | Survival rate, Psud. aeruginosa [1] | Survival rate [2] | Plaque No. [3] | Stimulation index [3] | Anti-influenza HA virus ELISA unit, Primary response serum [4] | Anti-influenza HA virus ELISA unit, Secondary response serum [4] | Survival rate, E. coli [5] | Swelling of Foot-pad [6] | Cytostatic rate [7] | Anti HBs-ELISA unit, Primary response serum [8] | Anti HBs-ELISA unit, Secondary response serum [8]
1 | CCCCCCCCCCCC(=O)O[C@H](CCCCCCCCCCC)CC(=O)OC[C@H]1OC(O)[C@H](NC(C)=O)[C@@H](O[C@H](C)C(=O)N[C@@H](C)C(=O)N[C@H](CCC(=O)OC)C(N)=O)[C@@H]1O (stereo partly drawn) [Example 1, N-[[2-O-{2-Acetamido-2,3-dideoxy-6-O-[(3R)-3-dodecanoyloxytetradecanoyl]-D-glucopyranos-3-yl}-D-lactoyl]]-L-alanyl-D-isoglutamine methyl ester] | 45% | 30% | 10.56 ± 8.3 × 10^3 | 2.2 | 4,800 ELISA unit | 34,000 ELISA unit | 50% | 59.2 ± 15.1 × 0.01 mm | 40.0 ± 1.2% | 10,800 ELISA unit | 150,000 ELISA unit
2 | CCCCCCCCCCCCCC(=O)O[C@H](CCCCCCCCCCC)CC(=O)OC[C@H]1OC(O)[C@H](NC(C)=O)[C@@H](O[C@H](C)C(=O)N[C@@H](C)C(=O)N[C@H](CCC(=O)OC)C(N)=O)[C@@H]1O (stereo partly drawn) [Example 2, N-[[2-O-{2-Acetamido-2,3-dideoxy-6-O-[(3R)-3-tetradecanoyloxytetradecanoyl]-D-glucopyranos-3-yl}-D-lactoyl]]-L-alanyl-D-isoglutamine methyl ester] | 45% | 30% | 8.23 ± 7.2 × 10^3 | 1.7 | 3,100 ELISA unit | 33,000 ELISA unit | 55% | 57.4 ± 16.3 × 0.01 mm | 45.2 ± 1.1% | 6,000 ELISA unit | 195,000 ELISA unit
3 | CCCCCCCCCCCCCCCC(=O)O[C@H](CCCCCCCCCCC)CC(=O)OC[C@H]1OC(O)[C@H](NC(C)=O)[C@@H](O[C@H](C)C(=O)N[C@@H](C)C(=O)N[C@H](CCC(=O)OC)C(N)=O)[C@@H]1O (stereo partly drawn) [Example 3, N-[[2-O-{2-Acetamido-2,3-dideoxy-6-O-[(3R)-3-hexadecanoyloytetradecanoyl]-D-glucopyranos-3-yl}-D-lactoyl]]-L-alanyl-D-isoglutamine methyl ester] | 40% | 20% | 21.23 ± 9.9 × 10^3 | 4.4 | 5,200 ELISA unit | 57,000 ELISA unit | 45% | 66.2 ± 12.3 × 0.01 mm | 22.3 ± 1.0% | 24,000 ELISA unit | 575,000 ELISA unit
4 | CCCCCCCCCCCC(=O)O[C@H](CCCCCCCCCCC)CC(=O)OC[C@H]1OC[C@H](NC(C)=O)[C@@H](O[C@H](C)C(=O)N[C@@H](C)C(=O)N[C@H](CCC(=O)OC)C(N)=O)[C@@H]1O [Example 4] | 50% | 35% | 6.67 ± 3.6 × 10^3 | 1.4 | 2,300 ELISA unit | 32,000 ELISA unit | 65% | 78.6 ± 19.1 × 0.01 mm | 55.2 ± 2.8% | 5,200 ELISA unit | 175,000 ELISA unit
5 | CCCCCCCCCCCCCC(=O)O[C@H](CCCCCCCCCCC)CC(=O)OC[C@H]1OC[C@H](NC(C)=O)[C@@H](O[C@H](C)C(=O)N[C@@H](C)C(=O)N[C@H](CCC(=O)OC)C(N)=O)[C@@H]1O [Example 5, N-[[2-O-{2-Acetamido-1,5-anhydro-2,3-dideoxy-6-O-[(3R)-3-tetradodecanoyloxytetradecanoyl]-D-glucitol-3-yl}-D-lactoyl]]-L-alanyl-D-isoglutamine methyl ester] | 55% | 35% | 5.83 ± 3.2 × 10^3 | 1.2 | 1,800 ELISA unit | 28,000 ELISA unit | 70% | 69.3 ± 18.8 × 0.01 mm | 58.6 ± 2.9% | 3,600 ELISA unit | 120,000 ELISA unit
6 | CCCCCCCCCCCCCCCC(=O)O[C@H](CCCCCCCCCCC)CC(=O)OC[C@H]1OC[C@H](NC(C)=O)[C@@H](O[C@H](C)C(=O)N[C@@H](C)C(=O)N[C@H](CCC(=O)OC)C(N)=O)[C@@H]1O [Example 6] | 50% | 30% | 6.81 ± 4.8 × 10^3 | 1.4 | 2,500 ELISA unit | 30,000 ELISA unit | 60% | 86.4 ± 22.1 × 0.01 mm | 42.6 ± 3.2% | 6,200 ELISA unit | 220,000 ELISA unit
7 | CCCCCCCCCCCC(=O)O[C@H](CCCCCCCCCCC)CC(=O)OC[C@H]1O[C@@H](S)[C@H](NC(C)=O)[C@@H](O[C@H](C)C(=O)N[C@@H](C)C(=O)N[C@H](CCC(=O)OC)C(N)=O)[C@@H]1O [Example 7, N-[[2-O-{2-Acetamido-2,3-dideoxy-6-O-[(3R)-3-dodecanoyloxytetradecanoyl]-1-thio-β-D-glucopyranos-3-yl}-D-lactoyl]]-L-alanyl-D-isoglutamine methyl ester] | 20% | 10% | 10.88 ± 9.8 × 10^3 | 2.3 | 2,000 ELISA unit | 26,000 ELISA unit | 30% | 50.6 ± 13.6 × 0.01 mm | 22.8 ± 2.6% | 2,500 ELISA unit | 110,000 ELISA unit
